# Measurements published in patent US7999119B2, “Compounds having CRTH2 antagonist activity” (Oxagen Limited, priority 2006, dated 2011).
# Values joined by “and” are separate entries in the source; they are usually repeats but may differ in a detail not shown here. Identical values can stand only once. Like-named read-outs stand apart in the source and are kept apart here.
# Tests used:
# [1] = system: PGD2 induced eosinophil shape change; assay: Human whole blood eosinophil shape change assay; format: cell-based; conditions: Homo sapiens, Eosinophil
# Experimental: Human Whole Blood Eosinophil Shape Change Assay
# Compounds 1 to 3 were assayed for their effect on PGD2 induced eosinophil shape change and were compared with Comparator Compounds A to G.
# Shape Change Assay in Whole Blood
# Compounds (1 μl, 200× final concentration) were added directly to 200 μl whole blood, mixed well and incubated for 15 min, 37° C., 5% CO2. After this time, cell shape was fixed by addition of 300 μl Cytofix™ buffer (BD Biosciences), 15 min on ice. 10 ml RBC lysis buffer was added to the fixed cells, incubated 5 min, at room temperature and centrifuged, 300×g for 5 min. Supernatant (containing lysed red cells) was removed and the lysis step was repeated. Leukocytes were resuspended in 250 μl RPMI/10% FCS and shape change analysed by FACS. Eosinophils were gated out based on their autofluorescence and 2000 eosinophil events were counted per sample. Data were analysed in triplicate.
# [2] = Pharmacokinetics following oral administration in the rat; format: in vivo; conditions: for concentration at 0.25 h / concentration at 0.5 h / concentration at 1 h / concentration at 2 h / concentration at 4 h / concentration at 6 h / concentration at 8 h / concentration at 12 h / Concentration in Blood / concentration at 24 h: 3 mg/kg oral
# Experimental: Investigation of Pharmacokinetics of Compounds of General Formula (I) Following Oral Administration in the Rat
# Rats were weighed on the day of dosing.
# The test material was prepared as a 0.3 mg/mL suspension in 1% carboxy-methyl-cellulose (CMC).
# Three groups of 3 rats were dosed as follows:
# Doses were administered as a single oral dose using a gavage tube at a constant dose volume of 10 mL/kg.
# At each sampling time point blood samples (approximately 0.3 mL) was taken from a catheter inserted into a lateral tail vein prior to the start of the experiment. The final blood sample (approximately 2 mL) from each animal was taken by cardiac puncture under isoflurane anaesthesia following which the animal was killed by exsanguination. Blood samples were taken into individual heparinised containers. Blood samples were collected at the following times post-dose:
# Following collection, the blood samples were centrifuged (approximately 10,000×g, 2 min at 4° C.) and the plasma stored as one aliquot at approximately −20° C. pending analysis of drug concentrations by LC-MS/MS.
# The plasma samples were analysed for test material concentrations at BioDynamics using an LC-MS/MS method developed at BioDynamics.
# [3] = system: DK-PGD2-induced blood eosinophilia; assay: Inhibition of DK-PGD2-induced blood eosinophilia in rats; format: in vivo, rat; conditions: female rats, oral dosing 30 min before 10 μg DK-PGD2 intracardiac; ED50 from dose-response curve; the values are: ED50
# Experimental: Evaluation of Compounds of General Formula (I) as Inhibitors of 13,14-dihydro-15-keto prostaglandin D2 (DK-PGD2)-Induced Blood Eosinophilia in Rats
# The test compound was dissolved in DMSO and diluted with water to give a final dosing volume of 2 ml/kg.
# Female rats (175-250 g; UH colony) were dosed orally with test compound (or vehicle).
# 30 min after dosing all animals were anaesthetised with isoflurane.
# Following induction of anaesthesia, animals receive an intracardiac injection of 10 μg DK-PGD2 in 0.3 ml heparinised (10 U/ml) saline. Control animals received an injection of 0.3 ml heparinised saline.
# 60 min after the intracardiac injection, animals were injected with an overdose of pentobarbitone sodium and a blood sample was taken (into heparin) by cardiac puncture while the rat was anaesthetised but not dead.
# An aliquot of blood (100 μl) was added to Turk's solution and the total leukocyte count determined with a haemocytometer.
# A further aliquot of blood (500 μl) was mixed with an equal volume of 4% Dextran (mw 500,000) and the erythrocytes allowed to settle. A cytospin preparation was made from the resulting leukocyte rich fraction.
# Cytospin preparations were fixed with methanol (5 min) and stained with May-Grunwald (5 min) and Giemsa (15 min) stains. Finally cytospins were washed in phosphate buffer (pH6.8) and air dried.
# Differential leukocyte counts were obtained from the cytospin preparations.
# Blood eosinophil numbers were determined from the total leukocyte count and the percentage eosinophils (differential count).
# Because it was impractical to generate sufficient data in any given experiment, data were obtained over a number of replicate experiments. Data from these replicate experiments were pooled, to provide at least 5 animals in each group and a dose-response curve fitted following a significance test (Mann Whitney) to determine whether or not DK-PGD2 caused a significant increase in blood eosinophils (GraphPad, Prism). A difference between groups was taken to be significant when P<0.05. ED50 values were calculated from the dose-response curve.
# [4] = 10 nm PGD2-induced eosinophil shape change, human whole blood, read-out: Whole Blood IC50
# [5] = Table 12 summary of whole blood eosinophil shape change IC50, read-out: IC50 (μmol)
# [6] = whole blood eosinophil shape change IC50 converted to ng/mL, read-out: IC50
# [7] = read-out: IC50 in the whole blood eosinophil shape change assay
# [8] = male, rat, plasma, po, 3 mg/kg, rat, 0.25 h, individual male animals, read-out: Concentration in Blood
# [9] = male, rat, plasma, po, 3 mg/kg, rat, 0.25 h, mean, read-out: Concentration in Blood, Mean
# [10] = male, rat, plasma, po, 3 mg/kg, rat, 0.5 h, individual male animals, read-out: Concentration in Blood
# [11] = male, rat, plasma, po, 3 mg/kg, rat, 0.5 h, mean, read-out: Concentration in Blood, Mean
# [12] = male, rat, plasma, po, 3 mg/kg, rat, 1 h, individual male animals, read-out: Concentration in Blood
# [13] = male, rat, plasma, po, 3 mg/kg, rat, 1 h, mean, read-out: Concentration in Blood, Mean
# [14] = male, rat, plasma, po, 3 mg/kg, rat, 2 h, mean, read-out: Concentration in Blood, Mean
# [15] = male, rat, plasma, po, 3 mg/kg, rat, 4 h, mean, read-out: Concentration in Blood, Mean
# [16] = male, rat, plasma, po, 3 mg/kg, rat, 6 h, mean, read-out: Concentration in Blood, Mean
# [17] = male, rat, plasma, po, 3 mg/kg, rat, 8 h, mean, read-out: Concentration in Blood, Mean
# [18] = male, rat, plasma, po, 3 mg/kg, rat, 12 h, mean, read-out: Concentration in Blood, Mean
# [19] = male, rat, plasma, po, 3 mg/kg, rat, 3 mg/kg p.o, individual male animals, read-out: Tmax
# [20] = male, rat, plasma, po, 3 mg/kg, rat, 3 mg/kg p.o, mean, summary without unit (Table 12), read-out: AUCinf (mean)
# [21] = male, rat, plasma, po, 3 mg/kg, rat, 3 mg/kg p.o, mean, summary without unit (Table 12), read-out: Cmax (mean)
# [22] = male, rat, plasma, po, 3 mg/kg, rat, 3 mg/kg p.o, mean, read-out: AUCinf, Mean
# [23] = male, rat, plasma, po, 3 mg/kg, rat, 3 mg/kg p.o, mean, read-out: Cmax, Mean
# [24] = male, rat, plasma, po, 3 mg/kg, rat, 3 mg/kg p.o, mean, read-out: Tmax, Mean
# [25] = male, rat, plasma, po, 3 mg/kg, rat, 3 mg/kg p.o, mean, read-out: T½, Mean (converted)
# [26] = rat, 0.25 h, individual male animals, 3 mg/kg
# [27] = rat, 0.5 h, individual male animals, 3 mg/kg
# [28] = rat, 1 h, individual male animals, 3 mg/kg
# [29] = rat, 2 h, individual male animals, 3 mg/kg
# [30] = rat, 4 h, individual male animals, 3 mg/kg
# [31] = rat, 6 h, individual male animals, 3 mg/kg
# [32] = rat, 8 h, individual male animals, 3 mg/kg
# [33] = rat, 12 h, individual male animals, 3 mg/kg
# [34] = rat, 3 mg/kg p.o, individual male animals, 3 mg/kg
SMILES,"IC50 [1, 4]","IC50 [1, 5]","IC50 [1, 6]","IC50 [1, 7]","concentration at 0.25 h [2, 8]","concentration at 0.25 h [2, 9]","concentration at 0.5 h [2, 10]","concentration at 0.5 h [2, 11]","concentration at 1 h [2, 12]","concentration at 1 h [2, 13]","concentration at 2 h [2, 14]","concentration at 4 h [2, 15]","concentration at 6 h [2, 16]","concentration at 8 h [2, 17]","concentration at 12 h [2, 18]","Tmax [2, 19]","AUC(0-inf) [2, 20]","Cmax [2, 21]","AUC(0-inf) [2, 22]","Cmax [2, 23]",also measured
"Cc1c(Cc2ccccc2S(=O)(=O)c2ccc(Cl)cc2)c2cc(F)ccc2n1CC(=O)O [Compound 2, 2-(3-(2-(4-chlorophenylsulfonyl)benzyl)-5-fluoro-2-methyl-1H-indol-1-yl)acetic acid]",2 nM,2 nM,0.9 ng/mL,2 nM,1570 ng/mL,1490 ng/mL,2610 ng/mL,2220 ng/mL,2960 ng/mL,2900 ng/mL,2500 ng/mL,1370 ng/mL,640 ng/mL,450 ng/mL,100 ng/mL,1 h,11700 ng·h/mL,2950 ng/mL,11700 ng·h/mL,2950 ng/mL,"concentration at 2 h ([2]; male, rat, plasma, po, 3 mg/kg, rat, 2 h, individual male animals, read-out: Concentration in Blood): 2240 ng/mL; concentration at 4 h ([2]; male, rat, plasma, po, 3 mg/kg, rat, 4 h, individual male animals, read-out: Concentration in Blood): 1130 ng/mL; AUC(0-inf) ([2]; male, rat, plasma, po, 3 mg/kg, rat, 3 mg/kg p.o, individual male animals, read-out: AUCinf): 13200 ng·h/mL; Cmax ([2]; male, rat, plasma, po, 3 mg/kg, rat, 3 mg/kg p.o, individual male animals, read-out: Cmax): 2960 ng/mL; Tmax [2, 24]: 1.3 h; half-life [2, 25]: 3.7 h; Concentration in Blood [2, 26]: 1297.7 ng/mL and 1608.1 ng/mL; Concentration in Blood [2, 27]: 1770.2 ng/mL and 2276.6 ng/mL; Concentration in Blood [2, 28]: 2367.1 ng/mL and 3366.1 ng/mL; Concentration in Blood [2, 29]: 2536.9 ng/mL and 2717.6 ng/mL; Concentration in Blood [2, 30]: 1319.1 ng/mL and 1666.5 ng/mL; Concentration in Blood [2, 31]: 519.6 ng/mL and 368.3 ng/mL and 1032.6 ng/mL; Concentration in Blood [2, 32]: 423.7 ng/mL and 186.7 ng/mL and 740.4 ng/mL; Concentration in Blood [2, 33]: 144.7 ng/mL and 28.2 ng/mL and 128.1 ng/mL; Concentration in Blood ([2]; rat, 24 h, individual male animals, 3 mg/kg): 60.5 ng/mL and 0.0 ng/mL (2×); AUCinf [2, 34]: 10179 ng·h/mL and 15677 ng·h/mL; Cmax [2, 34]: 2537.0 ng/mL and 3366.0 ng/mL; Tmax [2, 34]: 2.0 h; T½ [2, 34]: 6 hours and 2 hours (2×); Potency in inhibition of DK-PGD2-induced blood eosinophilia [3]: 0.01 mg/kg"
"Cc1c(Cc2ccc(S(C)(=O)=O)cc2)c2cc(F)ccc2n1CC(=O)O [Compound B, [5-Fluoro-3-(4-methanesulfonyl-benzyl)-2-methyl-indol-1-yl]-acetic acid, reference compound]",8 nM,8 nM,3 ng/mL,8 nM,91.8 ng/mL,87.6 ng/mL,121 ng/mL,140 ng/mL,252 ng/mL,255 ng/mL,381 ng/mL,283 ng/mL,182 ng/mL,114 ng/mL,27.3 ng/mL,2 h,2200 ng·h/mL,381 ng/mL,2200 ng·h/mL,381 ng/mL,"concentration at 24 h ([2]; male, rat, plasma, po, 3 mg/kg, rat, 24 h, individual male animals, read-out: Concentration in Blood): 0 ng/mL; concentration at 24 h ([2]; male, rat, plasma, po, 3 mg/kg, rat, 24 h, mean, read-out: Concentration in Blood, Mean): 0 ng/mL; half-life ([2]; male, rat, plasma, po, 3 mg/kg, rat, 3 mg/kg p.o, individual male animals, read-out: T½ (converted)): 3.41 h; Tmax [2, 24]: 2 h; half-life [2, 25]: 2.4 h; Fold over IC50 at 24 h ([2]; mean blood concentration at 24 h (rat, 3 mg/kg p.o.) divided by whole blood IC50 in ng/ml): 0; Concentration in Blood [2, 26]: 113.6 ng/mL and 57.3 ng/mL; Concentration in Blood [2, 27]: 165.7 ng/mL and 132.1 ng/mL; Concentration in Blood [2, 28]: 295.1 ng/mL and 217.5 ng/mL; Concentration in Blood [2, 29]: 349.9 ng/mL and 536.9 ng/mL and 256.2 ng/mL; Concentration in Blood [2, 30]: 179.4 ng/mL and 485.2 ng/mL and 184.9 ng/mL; Concentration in Blood [2, 31]: 128.3 ng/mL and 292.2 ng/mL and 125.8 ng/mL; Concentration in Blood [2, 32]: 72.1 ng/mL and 184.5 ng/mL and 84.7 ng/mL; Concentration in Blood [2, 33]: 36.5 ng/mL and 31.0 ng/mL and 14.5 ng/mL; Concentration in Blood ([2]; rat, 24 h, individual male animals): 0 ng/mL; AUCinf [2, 34]: 1831.4 ng·h/mL and 3256.1 ng·h/mL and 1505.1 ng·h/mL; Cmax [2, 34]: 349.9 ng/mL and 536.9 ng/mL and 256.2 ng/mL; T½ [2, 34]: 1.80 h and 1.86 h; AUCinf (mean) ([2]; rat, 3 mg/kg p.o, mean, summary without unit (Table 12), 3 mg/kg, in ng·h/mL): 2198; Potency in inhibition of DK-PGD2-induced blood eosinophilia [3]: 17 mg/kg"
